# Measured values from patent publication US6020341A, “Enediyne quinone imines and methods of preparation and use thereof” (priority 1997, dated 2000).
# pIC50: −log10 of the molar value. Read-outs that look alike come from different tables or passages of the source.
# What was measured:
# CCRF-CEM/VM-1 cells = assay: Cytotoxicity, CCRF-CEM/VM-1; format: cell-based, human; conditions: for pIC50 / IC90: Homo sapiens, CCRF-CEM; for IC90: read-out: Cytotoxic Concentration IC90
# Excerpt: (§1) | cell growth by 50% (IC50) in μM.
# [1] = system: Human promyelocytic leukemic cell (HL-60); assay: Cytotoxicity, HL-60; format: cell-based
# Excerpt: as §1
# [2] = system: Human acute lymphoblastic T cells (CCRF-CEM); assay: Cytotoxicity, CCRF-CEM; format: cell-based; conditions: for pIC50 / IC90: Homo sapiens, CCRF-CEM; for IC90: read-out: Cytotoxic Concentration IC90
# Excerpt: as §1
# CCRF-CEM/VBL cells = assay: Cytotoxicity, CCRF-CEM resistant to vinblastine; format: cell-based, human; conditions: for pIC50 / IC90: Homo sapiens, CCRF-CEM; for IC90: read-out: Cytotoxic Concentration IC90
# Excerpt: as §1
# [3] = system: Human breast adenocarcinoma cells (SK-Br-3); assay: Cytotoxicity, SK-Br-3; format: cell-based
# Excerpt: as §1
# [4] = system: Human testicular teratocarcinoma cells (833K); assay: Cytotoxicity, 833K; format: cell-based
# Excerpt: as §1
# [5] = system: Chinese hamster lung cells (DC-3F); assay: Cytotoxicity, DC-3F; format: cell-based; conditions: for pIC50 / IC90: Cricetulus griseus, DC3F; for IC90: read-out: Cytotoxic Concentration IC90
# Excerpt: as §1
# [6] = system: Chinese hamster lung cells resistant to actinomycin D (DC-3F/ADII); assay: Cytotoxicity, DC-3F/ADII; format: cell-based; conditions: for pIC50 / IC90: Cricetulus griseus, DC3F; for IC90: read-out: Cytotoxic Concentration IC90
# Excerpt: as §1
# MT2 cells = assay: Cytotoxicity, MT2; format: cell-based; conditions: Table 15, MT2
# [7] = Table 14, vinblastine-resistant (VLB100)
# [8] = Table 3, CCRF-CEM/VBL, EQI-6 = (1)
# [9] = Table 3, CCRF-CEM/VM-1, EQI-6 = (1)
# [10] = Table 4, DC-3F/ADII, EQI-6 = (1)
compound,measurement,setting,value
COc1cc([C@@H]2c3cc4c(cc3[C@@H](O[C@@H]3O[C@@H]5CO[C@@H](c6cccs6)O[C@H]5[C@H](O)[C@H]3O)[C@H]3COC(=O)[C@H]23)OCO4)cc(OC)c1O [VM26],resistance of cell line to VM26,CCRF-CEM/VM-1 cells; CCRF/VM1 versus CCRF/CEM,50 fold
"COc1cc(NS(C)(=O)=O)ccc1Nc1c2ccccc2nc2ccccc12 [m-AMSA, 4'-(9-acridinylamino)methanesulfon-m-anisidide]",pIC50,"[1]; Homo sapiens, HL-60, Table 1, HL-60, read-out: IC50",7.41
same,pIC50,"[1]; Homo sapiens, HL-60, Table 2, HL60, read-out: concentration required to inhibit cell growth by 50% (IC50)",7.41
same,pIC50,"[1]; Homo sapiens, HL-60, Table 3, HL-60, read-out: Cytotoxic Concentration IC50",7.41
same,IC90,"[1]; Homo sapiens, HL-60, Table 3, HL-60, read-out: Cytotoxic Concentration IC90",176 nM
same,Cytotoxic Concentration IC95,"[1]; Table 3, HL-60",294 nM
same,ratio of IC50 to EQI-6 (in parentheses),"[1]; Table 3, HL-60, EQI-6 = (1)",66.9 ×
same,ratio of IC90 to EQI-6 (in parentheses),"[1]; Table 3, HL-60, EQI-6 = (1)",67.7 ×
same,ratio of IC95 to EQI-6 (in parentheses),"[1]; Table 3, HL-60, EQI-6 = (1)",66.8 ×
same,pIC50,"[2]; Table 1, CCRF-CEM, read-out: IC50",6.70
same,pIC50,"[2]; Table 2, CCRF/CEM, read-out: concentration required to inhibit cell growth by 50% (IC50)",6.70
same,pIC50,"[2]; Table 3, CCRF-CEM, read-out: Cytotoxic Concentration IC50",6.70
same,IC90,"[2]; Table 3, CCRF-CEM",1540 nM
same,pIC50,"[2]; Table 14, CCRF-CEM, read-out: Cytotoxic Concentration IC50",6.89
same,IC90,"[2]; Table 14, CCRF-CEM",755 nM
same,Cytotoxic Concentration IC95,"[2]; Table 3, CCRF-CEM",3101 nM
same,ratio of IC50 to EQI-6 (in parentheses),"[2]; Table 3, CCRF-CEM, EQI-6 = (1)",398 ×
same,ratio of IC90 to EQI-6 (in parentheses),"[2]; Table 3, CCRF-CEM, EQI-6 = (1)",702 ×
same,ratio of IC95 to EQI-6 (in parentheses),"[2]; Table 3, CCRF-CEM, EQI-6 = (1)",838 ×
same,Cytotoxic Concentration IC95,"[2]; Table 14, CCRF-CEM",1378 nM
same,pIC50,"CCRF-CEM/VBL cells; Table 2, CCRF/VBL (MDR/pg-p), read-out: concentration required to inhibit cell growth by 50% (IC50)",6.25
same,pIC50,"CCRF-CEM/VBL cells; Table 3, CCRF-CEM/VBL, read-out: Cytotoxic Concentration IC50",6.25
same,IC90,"CCRF-CEM/VBL cells; Table 3, CCRF-CEM/VBL",2460 nM
same,pIC50,"CCRF-CEM/VBL cells; Table 14, vinblastine-resistant (VLB100), read-out: Cytotoxic Concentration IC50",6.02
same,IC90,CCRF-CEM/VBL cells; [7],7230 nM
same,Cytotoxic Concentration IC95,"CCRF-CEM/VBL cells; Table 3, CCRF-CEM/VBL",4045 nM
same,ratio of IC50 to EQI-6 (in parentheses),CCRF-CEM/VBL cells; [8],298.9 ×
same,ratio of IC90 to EQI-6 (in parentheses),CCRF-CEM/VBL cells; [8],396 ×
same,ratio of IC95 to EQI-6 (in parentheses),CCRF-CEM/VBL cells; [8],434.9 ×
same,Cytotoxic Concentration IC95,CCRF-CEM/VBL cells; [7],14353 nM
same,pIC50,"CCRF-CEM/VM-1 cells; Table 2, CCRF/VM-1 (MDR/TopoII), read-out: concentration required to inhibit cell growth by 50% (IC50)",5.77
same,pIC50,"CCRF-CEM/VM-1 cells; Table 3, CCRF-CEM/VM-1, read-out: Cytotoxic Concentration IC50",5.77
same,IC90,"CCRF-CEM/VM-1 cells; Table 3, CCRF-CEM/VM-1",3570 nM
same,pIC50,"CCRF-CEM/VM-1 cells; Table 14, CCRF-CEM/VM-1, read-out: Cytotoxic Concentration IC50",5.39
same,IC90,"CCRF-CEM/VM-1 cells; Table 14, CCRF-CEM/VM-1",11000 nM
same,Cytotoxic Concentration IC95,"CCRF-CEM/VM-1 cells; Table 3, CCRF-CEM/VM-1",4586 nM
same,ratio of IC50 to EQI-6 (in parentheses),CCRF-CEM/VM-1 cells; [9],902.1 ×
same,ratio of IC90 to EQI-6 (in parentheses),CCRF-CEM/VM-1 cells; [9],401.3 ×
same,ratio of IC95 to EQI-6 (in parentheses),CCRF-CEM/VM-1 cells; [9],303 ×
same,Cytotoxic Concentration IC95,"CCRF-CEM/VM-1 cells; Table 14, CCRF-CEM/VM-1",15391 nM
same,pIC50,"[3]; Homo sapiens, SK-BR-3, Table 2, SK-Br-3 (Breast), read-out: concentration required to inhibit cell growth by 50% (IC50)",6.26
same,pIC50,"[3]; Homo sapiens, SK-BR-3, Table 4, SK-Br-3, read-out: Cytotoxic Concentration IC50",6.26
same,IC90,"[3]; Homo sapiens, SK-BR-3, Table 4, SK-Br-3, read-out: Cytotoxic Concentration IC90",84100 nM
same,Cytotoxic Concentration IC95,"[3]; Table 4, SK-Br-3",464700 nM
same,ratio of IC50 to EQI-6 (in parentheses),"[3]; Table 4, SK-Br-3, EQI-6 = (1)",16.2 ×
same,ratio of IC90 to EQI-6 (in parentheses),"[3]; Table 4, SK-Br-3, EQI-6 = (1)",449.7 ×
same,ratio of IC95 to EQI-6 (in parentheses),"[3]; Table 4, SK-Br-3, EQI-6 = (1)",139.7 ×
same,pIC50,"[4]; Homo sapiens, 833K, Table 2, 833K (Testicular), read-out: concentration required to inhibit cell growth by 50% (IC50)",7.37
same,pIC50,"[4]; Homo sapiens, 833K, Table 4, 833k, read-out: Cytotoxic Concentration IC50",7.37
same,IC90,"[4]; Homo sapiens, 833K, Table 4, 833k, read-out: Cytotoxic Concentration IC90",189 nM
same,Cytotoxic Concentration IC95,"[4]; Table 4, 833k",311 nM
same,ratio of IC50 to EQI-6 (in parentheses),"[4]; Table 4, 833k, EQI-6 = (1)",6.14 ×
same,ratio of IC90 to EQI-6 (in parentheses),"[4]; Table 4, 833k, EQI-6 = (1)",7.56 ×
same,ratio of IC95 to EQI-6 (in parentheses),"[4]; Table 4, 833k, EQI-6 = (1)",7.97 ×
same,pIC50,"[5]; Table 2, DC-3F, read-out: concentration required to inhibit cell growth by 50% (IC50)",8.06
same,pIC50,"[5]; Table 4, DC-3F, read-out: Cytotoxic Concentration IC50",8.06
same,IC90,"[5]; Table 4, DC-3F",53 nM
same,pIC50,"[5]; Table 13, DC-3F, read-out: Cytotoxic Concentration IC50",8.40
same,IC90,"[5]; Table 13, DC-3F",17 nM
same,Cytotoxic Concentration IC95,"[5]; Table 4, DC-3F",97.5 nM
same,ratio of IC50 to EQI-6 (in parentheses),"[5]; Table 4, DC-3F, EQI-6 = (1)",4.9 ×
same,ratio of IC90 to EQI-6 (in parentheses),"[5]; Table 4, DC-3F, EQI-6 = (1)",4.8 ×
same,ratio of IC95 to EQI-6 (in parentheses),"[5]; Table 4, DC-3F, EQI-6 = (1)",4.9 ×
same,Cytotoxic Concentration IC95,"[5]; Table 13, DC-3F",28 nM
same,pIC50,"[6]; Table 2, DC-3F/ADII (MDR/Actinomycin D), read-out: concentration required to inhibit cell growth by 50% (IC50)",7.15
same,pIC50,"[6]; Table 4, DC-3F/ADII, read-out: Cytotoxic Concentration IC50",7.15
same,IC90,"[6]; Table 4, DC-3F/ADII",825 nM
same,pIC50,"[6]; Table 13, DC-3F/ADII, read-out: Cytotoxic Concentration IC50",7.48
same,IC90,"[6]; Table 13, DC-3F/ADII",180 nM
same,Cytotoxic Concentration IC95,"[6]; Table 4, DC-3F/ADII",1902 nM
same,ratio of IC50 to EQI-6 (in parentheses),[6]; [10],12 ×
same,ratio of IC90 to EQI-6 (in parentheses),[6]; [10],53.6 ×
same,ratio of IC95 to EQI-6 (in parentheses),[6]; [10],88.9 ×
same,Cytotoxic Concentration IC95,"[6]; Table 13, DC-3F/ADII",321 nM
same,pIC50,"MT2 cells; Homo sapiens, read-out: Cytotoxic Concentration IC50",7.72
same,IC90,"MT2 cells; Homo sapiens, read-out: Cytotoxic Concentration IC90",38 nM
same,Cytotoxic Concentration IC95,MT2 cells,48 nM
CC[C@]1(O)C[C@@H]2CN(CCc3c([nH]c4ccccc34)[C@@](C(=O)OC)(c3cc4c(cc3OC)N(C)[C@H]3[C@@](O)(C(=O)OC)[C@H](OC(C)=O)[C@]5(CC)C=CCN6CC[C@]43[C@@H]65)C2)C1 [vinblastin],resistance of cell line to vinblastin,CCRF-CEM/VBL cells; CCRF/VBL100 versus CCRF/CEM,59 fold
actinomycin D,resistance of cell line to actinomycin D,[6]; DC3F/ADII versus DC3F,32 fold
